The record followed here is article PMC2826549 (Thrombosis research, 2009).

Holding throughout (assay type): cell-based
One assay has as its target P2Y12 (Homo sapiens, UniProt Q9H244). The experiment in a line: VASP phosphorylation flow cytometry in human whole blood platelets.
The next assay deals with P2Y1 (Homo sapiens, UniProt P47900). The experiment in a line: inhibition of […] ADP-induced cytosolic Ca2+ increase in human platelets.
For another assay, the target named is T1, P2X1 (Homo sapiens, UniProt P51575).
T1 sequence (P51575 1-399): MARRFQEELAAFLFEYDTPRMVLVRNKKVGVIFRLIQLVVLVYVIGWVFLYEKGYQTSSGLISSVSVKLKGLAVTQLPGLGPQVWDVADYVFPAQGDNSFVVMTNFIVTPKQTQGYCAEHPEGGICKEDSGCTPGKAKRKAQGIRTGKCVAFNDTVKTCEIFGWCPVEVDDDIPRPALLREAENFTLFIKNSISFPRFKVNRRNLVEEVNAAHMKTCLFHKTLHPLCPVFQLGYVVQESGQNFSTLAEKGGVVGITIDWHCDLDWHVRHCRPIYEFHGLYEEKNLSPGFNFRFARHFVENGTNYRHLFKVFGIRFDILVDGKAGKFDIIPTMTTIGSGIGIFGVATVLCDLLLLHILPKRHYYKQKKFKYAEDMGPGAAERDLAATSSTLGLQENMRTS
The experiment in a line: FLUO-4 flow cytometry of extracellular Ca2+ entry in human platelets. To be noted: read-out: Ap4A Agonist Activity.

Chain of P2Y12 (Q9H244 whole entry): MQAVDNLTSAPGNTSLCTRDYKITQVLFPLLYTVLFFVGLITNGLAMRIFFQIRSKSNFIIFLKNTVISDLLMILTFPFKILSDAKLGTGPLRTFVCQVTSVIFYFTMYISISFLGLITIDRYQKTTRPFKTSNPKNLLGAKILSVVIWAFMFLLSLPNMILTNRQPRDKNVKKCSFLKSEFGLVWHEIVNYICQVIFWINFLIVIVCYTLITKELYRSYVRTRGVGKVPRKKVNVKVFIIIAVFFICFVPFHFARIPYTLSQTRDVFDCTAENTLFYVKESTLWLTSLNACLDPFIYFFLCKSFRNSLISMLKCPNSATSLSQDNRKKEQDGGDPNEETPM
Chain of P2Y1 (P47900 whole entry): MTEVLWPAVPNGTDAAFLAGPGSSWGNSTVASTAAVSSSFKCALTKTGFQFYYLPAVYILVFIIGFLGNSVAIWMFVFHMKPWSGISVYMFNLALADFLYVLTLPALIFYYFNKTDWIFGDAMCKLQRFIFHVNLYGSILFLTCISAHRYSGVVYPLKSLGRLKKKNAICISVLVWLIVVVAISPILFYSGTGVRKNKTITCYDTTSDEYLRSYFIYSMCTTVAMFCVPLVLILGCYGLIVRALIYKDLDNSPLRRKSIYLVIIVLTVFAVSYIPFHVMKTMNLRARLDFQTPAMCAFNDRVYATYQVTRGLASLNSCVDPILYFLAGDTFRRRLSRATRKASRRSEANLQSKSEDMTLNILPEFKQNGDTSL

For the compound `Nc1ncnc2c1ncn2[C@@H]1O[C@H](COP(=O)(O)OP(=O)(O)OP(=O)(O)OP(=O)(O)OC[C@H]2O[C@@H](n3cnc4c(N)ncnc43)[C@H](O)[C@@H]2O)[C@@H](O)[C@H]1O` [Ap4A, Diadenosine 5',5"'-P^1,P^4-tetraphosphate], the IC50 on P2Y12 is over 250 µM; at P2Y1, 40.8 ± 12.3 µM. Besides, the EC50 at P2X1 is about 0.3 µM.
